Measured values taken from patent US5001142A, “1-substituted-2-(3-amino-1-propynyl)pyrrolidine derivatives” (American Cyanamid Company, priority 1989, dated 1991).
Structures can show the parent of a compound that is named as a salt.

Assays:
[1] = target: muscarinic cholinergic receptor; experiment: [^3 H]-Cis-methyldioxolane (^3 H-CD) Binding Assay (High Affinity); details: rat cerebral cortex, ^3 H-CD 1.0 nM, 25° C., 120 minutes, pH 7.4, high affinity agonist conformation
[2] = target: muscarinic cholinergic receptor; experiment: [^3 H] Quinuclidinyl Benzilate (^3 H-QNB) Binding Assay; details: rat cerebral cortex, ^3 H-QNB 0.25 nM, 25° C., 120 minutes, pH 7.4
muscarinic sites = details: cited from earlier work
postsynaptic cholinergic = details: should mimic the effects of acetylcholine; cited from earlier work
presynaptic cholinergic = details: should disinhibit the release of endogenous acetylcholine; cited from earlier work
SDAT patients = details: compared to the anticholinesterase inhibitor physostigmine; cited from earlier work
aged monkey = details: aged monkeys; cited from earlier work

Row | IC50 [1] | IC50 [2] | SMILES | other results
1 | 2.58 µM | 40 µM | O=C(N1CCC[C@@H]1C#CCN1CCCC1)C(F)(F)F [(R)-2-[3-(1-Pyrrolidinyl)-1-propynyl]-1-(trifluoroacetyl)pyrrolidine] | –
2 | 0.029 µM | 6.5 µM | CC(C)(C)OC(=O)N1CCC[C@@H]1C#CCN1CCCC1 [(R)-2-[3-(1-Pyrrolidinyl)-1-propynyl]-1-pyrrolidine-carboxylic acid, 1,1-dimethylethyl ester] | –
3 | 6.78 µM | 43 µM | CS(=O)(=O)N1CCC[C@H]1C#CCN1CCCC1 [(S)-1-(Methylsulfonyl)-2-[3-(1-pyrrolidinyl]-1-propynyl]pyrrolidine] | –
4 | 2.71 µM | 76 µM | CC(=O)N1CCC[C@H]1C#CCN1CCCC1 [(S)-1-Acetyl-2-[3-(1-pyrrolidinyl)-1-propynyl]pyrrolidine] | –
5 | 0.247 µM | 4.2 µM | CC(C)(C)OC(=O)N1CCC[C@H]1C#CCN1CCCC1 [(S)-2-[3-(1-Pyrrolidinyl)-1-propynyl]1-pyrrolidine-carboxylic acid, 1,1-dimethylethyl ester] | –
6 | 5.47 µM | 18 µM | O=C(N1CCC[C@H]1C#CCN1CCCC1)C(F)(F)F [(S)-2-[3-(1-Pyrrolidinyl)-1-propynyl]-1-(trifluoroacetyl)pyrrolidine] | –
7 | 5.24 µM | 65 µM | O=CN1CCC[C@H]1C#CCN1CCCC1 [(S)-2-[3-(1-Pyrrolidinyl)-1-propynyl]-1-pyrrolidinecarboxaldehyde] | –

Further lines, the compound ahead of its results:

Row | SMILES | IC50 [1] | IC50 [2] | other results
8 | CS(=O)(=O)N1CCC[C@@H]1C#CCN1CCCC1 [(R)-1-(Methylsulfonyl)-2-[3-(1-pyrrolidinyl)-1-propynyl]pyrrolidine, hydrochloride] | – | – | IC50 ([1]; hydrochloride): 2.45 µM; IC50 ([2]; hydrochloride): 25 µM
9 | CS(=O)(=O)N1CCC[C@@H]1C#CCN1CCCC1 [(R)-1-(Methylsulfonyl)-2-[3-(1-pyrrolidinyl)-1-propynyl]pyrrolidine] | 0.973 µM | 23 µM | –
10 | CC(=O)N1CCC[C@@H]1C#CCN1CCCC1 [(R)-1-Acetyl-2-[3-(1-pyrrolidinyl)-1-propynyl]pyrrolidine] | 0.78 µM | 8.8 µM | –
11 | C(#C[C@H]1CCCN1)CN1CCCC1 [(R)-1-[3-(2-Pyrrolidinyl)-2-propynyl] pyrrolidine, dihydrochloride] | – | – | IC50 ([1]; dihydrochloride): 0.742 µM; IC50 ([2]; dihydrochloride): 2.7 µM
12 | C(#C[C@H]1CCCN1)CN1CCCC1 [(R)-1-[3-(2-Pyrrolidinyl)-2-propynyl]pyrrolidine] | 0.514 µM | 3.1 µM | –
13 | O=CN1CCC[C@@H]1C#CCN1CCCC1 [(R)-2-(3-(1-Pyrrolidinyl)-1-propynyl]-1-pyrrolidine-carboxaldehyde] | 3.58 µM | 34 µM | –
14 | O=C(N1CCC[C@@H]1C#CCN1CCCC1)C(F)(F)F [(R)-2-[3-(1-Pyrrolidinyl)-1-propynyl]-1-(trifluoroacetyl)pyrrolidine, dihydrochloride] | – | – | IC50 ([1]; dihydrochloride): 8.57 µM; IC50 ([2]; dihydrochloride): 43 µM
15 | CS(=O)(=O)N1CCC[C@H]1C#CCN1CCCC1 [(S)-1-(Methylsulfonyl)-2-[3-(1-pyrrolidinyl)-1propynyl]pyrrolidine, hydrochloride] | – | – | IC50 ([1]; hydrochloride): 8.08 µM; IC50 ([2]; hydrochloride): 47 µM
16 | CC(=O)N1CCC[C@H]1C#CCN1CCCC1 [(S)-1-Acetyl-2-[3-(1-pyrrolidinyl)-1-propynly]-pyrrolidine, hydrochloride] | – | – | IC50 ([1]; hydrochloride): 3.26 µM; IC50 ([2]; hydrochloride): 73 µM
17 | O=CN1CCC[C@H]1C#CCN1CCCC1 [(S)-2-[3-(1-Pyrrolidinyl)-1-propynyl]1-pyrrolidine-carboxaldehyde, hydrochloride] | – | – | IC50 ([1]; hydrochloride): 11.1 µM; IC50 ([2]; hydrochloride): 88 µM
18 | O=C(N1CCC[C@H]1C#CCN1CCCC1)C(F)(F)F [(S)-2-[3-(1-Pyrrolidinyl)-1-propynyl]1-trifluoroacetyl) pyrrolidine, hydrochloride] | – | – | IC50 ([1]; hydrochloride): 3.83 µM; IC50 ([2]; hydrochloride): 16 µM
19 | CC(=O)N(C)C(C)C#CCN1CCCC1 (stereo not drawn) [BM-5, N-methyl-N-(1-methyl-4-pyrrolidino-2-butynyl)acetamide] | – | – | antagonist/agonist action at muscarinic sites (muscarinic sites): antagonist at some muscarinic sites while being an agonist at most others; postsynaptic cholinergic action (postsynaptic cholinergic): postsynaptic partial cholinergic agonist; presynaptic cholinergic action (presynaptic cholinergic): presynaptic cholinergic antagonist
20 | COC(=O)C1=CCCN(C)C1 [arecoline] | – | – | improvement in SDAT patients compared to physostigmine (SDAT patients): more-consistent improvement; improvement in performance (aged monkey): significant improvement in performance
21 | O=C1CCCN1CC#CCN1CCCC1 [oxotremorine] | – | – | improvement in performance (aged monkey): significant improvement in performance
